Test results from patent publication US20220273671A1, “TOPICAL FORMULATIONS FOR TREATMENT OF PERIPHERAL NEUROPATHIES” (priority 2019, published 2022).
In brackets after ≈: the same amount, converted by molar mass.

How the values were obtained:
[1] = Plasma pharmacokinetics of topical pirenzepine formulations in healthy volunteers, 14 days; settings: any subject, any time point, any day
Description: PK: Blood samples were collected for the determination of pirenzepine concentration at the following nominal times:
Blood samples on Days 1, 7, and 14 were collected via either the indwelling intravenous (IV) cannula to reduce the frequency of direct venipuncture (at the discretion of the Investigator).
A validated liquid chromatography tandem mass-spectroscopy method (LLOQ: 0.1 ng/mL and ULOQ: 200 ng/mL) was used to determine the concentration of pirenzepine in plasma. […] For the pirenzepine concentration analysis in biopsy samples, a qualified method (LLOQ 1.00 mg/mL) was used.
Pirenzepine concentrations in plasma and skin biopsies were evaluated using Phoenix™ WinNonlin® version 8.0 (Pharsight Corporation, USA) and Microsoft® Excel® 2010 (Microsoft Corporation, USA).
Pharmacokinetic Population: According to the statistical analysis plan, the PK population comprised all randomized subjects with evaluable plasma concentrations of pirenzepine (ie, subjects with plasma concentrations considered sufficient and interpretable [at the discretion of the pharmacokineticist]). […] Any exclusion from the PK population was determined by the pharmacokineticist on blinded data, after database lock and prior to unblinding the study. […]
The goodness of fit of the regression was evaluated using the adjusted square of the correlation coefficient (R2 adjusted). […]

[2] = cited from earlier work
diabetic mice = settings: topical; cited from earlier work
M1R = biological target: T1, M1R (Homo sapiens, UniProt P11229); settings: cited from earlier work
T1 sequence (P11229 1-460): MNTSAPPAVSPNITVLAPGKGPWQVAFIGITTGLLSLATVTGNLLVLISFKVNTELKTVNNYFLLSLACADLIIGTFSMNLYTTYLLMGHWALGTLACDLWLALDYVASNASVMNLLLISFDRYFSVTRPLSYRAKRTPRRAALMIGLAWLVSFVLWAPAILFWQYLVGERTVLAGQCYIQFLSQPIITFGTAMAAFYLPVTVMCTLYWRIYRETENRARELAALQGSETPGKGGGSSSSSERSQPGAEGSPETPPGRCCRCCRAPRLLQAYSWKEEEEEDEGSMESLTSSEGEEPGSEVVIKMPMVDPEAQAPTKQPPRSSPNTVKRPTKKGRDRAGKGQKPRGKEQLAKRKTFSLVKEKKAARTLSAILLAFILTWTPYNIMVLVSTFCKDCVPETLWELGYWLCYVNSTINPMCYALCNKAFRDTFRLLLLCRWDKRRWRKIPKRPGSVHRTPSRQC

Question: Which “plasma level of the primary metabolite” value [1] does the source give for `O=C1Nc2cccnc2N(C(=O)CN2CCNCC2)c2ccccc21` [desmethyl pirenzepine] here?
Answer: not quantifiable

Question: Which results are given for `CN1CCN(CC(=O)N2c3ccccc3C(=O)Nc3cccnc32)CC1` [pirenzepine]?
Answer: Log P [2]: 0.6; Solubility [2]: 0.0682 mg/mL (≈ 194 µM); intraepidermal nerve fibers (diabetic mice): prevented and reversed loss of intraepidermal nerve fibers; motor nerve conduction velocity (diabetic mice): prevented deficits in motor nerve conduction velocity; sub-epidermal nerve plexus (diabetic mice): prevented loss of sub-epidermal nerve plexus; tactile allodynia (diabetic mice): prevented tactile allodynia; thermal hypoalgesia (diabetic mice): prevented and reversed the development of thermal hypoalgesia

Question: With `O=C(CCNS(=O)(=O)c1cccc2nsnc12)N1CCN(c2ccncc2)CC1` [VU0255035] as the molecule, how does the “selectivity to M1R relative to M2, M3, M4 and M5 receptors” value (M1R) read?
Answer: 75 times
